The record followed here is patent US11180767B2, “Protease deficient filamentous fungal cells and methods of use thereof” (GLYKOS FINLAND OY, priority 2012, dated 2021).

The test system of data set [1] is M369 human growth hormone strain. The experiment in a line: hGH production in 24 well cultures with inhibitors and supplements. It counts as cell-based, Trichoderma reesei. The conditions noted are these: 24 well culture, pH 4.5, day 4 immunoblot. Here is the method: To evaluate what inhibitors would best stabilize production of hGH, 24 well cultures of these strains were performed. The M369 human growth hormone strain (Δpep1Δtsp1Δslp1Δgap1Δgap2) was grown along with single components or with combinations of the following: trypsin and subtilisin inhibitor SBTI, the acidic protease inhibitor peptide SIP, the acidic protease inhibitor peptide LIP, the aspartic protease inhibitor pepstatin A free peptide, pepstatin A immobilized to agarose beads, the trypsin and subtilisin inhibitor BBI from lima bean, the […] chymostatin, and BSA. Three independent wells were chosen for control wells where no inhibitors or supplements were added. These two strains were grown in 3 ml of TrMM with diammonium citrate without ammonium sulfate, 100 mM PIPPS, 20 g/L spent grain extract, 40 g/L lactose adjusted to pH 4.5. The 24 well plates were shaken at 800 rpm, 85% humidity, and 28° C. The cultures were grown for 6 days and covered with an air permeable membrane.
Inhibitors were added first on day 1 and then daily beginning on day 3. 100 μl samples were taken from the culture wells beginning on day 3. The mycelium was spun down for 5 minutes at 13 k and the supernatant collected. From the culture supernatant 12 μl was loaded in a 4-20% SDS PAGE gel and immunoblotting made on nitrocellulose with mouse anti-hGH antibody (2 μg/ml) and goat anti-mouse IgG AP conjugated secondary antibody diluted 1:10,000 in TBST.
Estimating the expression levels relative to the 200 ng control sample, the control wells produced between 3-6 mg/L of hGH, the BSA (0.25%)/SIP (50 μM)/8BTI (0.2 mg/ml) treatment produced 24.5 mg/L, the SIP (50 μM)/8BTI (0.2 mg/ml) treatment produced 26.6 mg/L, and the pepstatin A beads/SBTI (0.2 mg/ml) addition yielded 24.5 mg/L of hGH. Therefore, using a combination of inhibitors and additives worked best increasing the production levels by at least 4-fold. The critical parameter was to include an aspartic protease inhibitor into the mix.

The subject of data set [2] is rituximab antibody producing strain. The experiment in a line: Treatment of T. reesei rituximab cultures with inhibitors. It counts as cell-based, Trichoderma reesei. The conditions noted are these: small shake flasks, inhibitors added daily day 2-5. As to the method:
The effectiveness of the inhibitors was also tested with the rituximab antibody producing strain, which contains a VALEKR linker sequence and the pep1 deletion. This strain was grown in triplicate, in small flasks both in presence or absence of chymostatin, SBTI, or pepstatin A. The small shake flasks contained 50 ml of TrMM plus lactose (40 g/l), spent grain extract (20 g/l), and buffer with 100 mM PIPPS at pH 5.5. The SBTI inhibitor was added to the culture at final concentrations of either 100 μg/ml or 500 μg/ml. Chymostatin was used at 100 μM, and pepstatin A was used at 10 μM. Each of the three inhibitors was added to the cultures daily on day 2, 3, 4, and 5.
Growth of the cultures was followed daily by pH from day 2 until day 7. […] In the PIPPS buffered cultures, the pH decreased from an initial pH of 5.5 down to a pH of 4.8 after day 6. With chymostatin and pepstatin A the cultures were monitored up to day 7. On day 7 the average pH for the control bottles was 4.6, while the average pH for chymostatin treated cultures was 4.9, and the average pH of pepstatin A treated cultures was 5.0.
Culture supernatant samples (30 μl) were also collected on days 3, 4, and 5 for analysis of antibody production. The analysis was performed by immunoblots using an anti-IgG heavy chain antibody AP conjugate (Sigma #A3188) and an anti-light chain antibody AP conjugate (Sigma #A3812). Each antibody was diluted 1:30,000 in TBST. The full length rituximab heavy chain is about 51 kD, the rituximab light chain CHBI fusion is about 100 kD, and the free rituximab light chain is about 28 kD.

The test system of data set [3] is proteases in supernatant from the 6-fold protease deletion strain M400. The data set can be described thus: Protease stability of proteins spiked into supernatant of the 6-fold protease deletion strain. The class given is biochemical, Trichoderma reesei. The note with it: pepstatin A 50 μM; SBTI 0.2 mg/ml; pH 4.2, 20 hours, 37°C. Here is the method:
The protease stability of the model proteins IGF1, hGH, and IFNα2b were analyzed by spiking them into supernatant from the 6-fold protease deletion strain (Δpep1Δtsp1Δslp1Δgap1Δgap2Δpep4) M400. The supernatant was collected from a large shake flask culture CAH15. The undiluted supernatant from the shake flask cultivation CAH15 was incubated with the purified model proteins with and without pepstatin A (50 μM) and SBTI (0.2 mg/ml) inhibitors for 20 hours at 37° C. The 5 day culture supernatant pH was around 4.2. The reaction containing 0.05 μg μl of model protein was sampled after 20 hours. 50 mM sodium citrate pH 4.0 spiked with model proteins (0.05 g 1) was used as a buffer control.
From each reaction 10 μl was loaded into an 18% SDS PAGE gel and run for 30 minutes at 200 V. The proteins in the gel were then transferred to nitrocellulose for immunoblotting. The nitrocellulose membrane was blocked for 1 hour at room temperature with 5% milk in TBST buffer. The individual blots were probed with their specific primary antibody to detect the appropriate model protein for 1 hour at room temperature on a shaker. The mouse anti-IGF1 antibody (R&D systems #mab291) was used at 2 μg/ml diluted in TBST. The mouse anti-rhGH antibody (Abeam #ab51232) was used at 2 μg/ml diluted in TBST. The mouse anti-IFNα2b antibody (Abeam #ab9386) was used at 1 μg/ml diluted in TBST. After briefly washing the blot membranes with TBST, the secondary antibody was added for 1 hour at room temperature shaking. The secondary goat anti-mouse AP conjugated antibody (Biorad #170-6520) was diluted 1:10,000 in TBST.
This same spiking experiment as was done with MAB01 to investigate its stability in the 6 protease deletion supernatant with and without inhibitors (FIG. 43). Samples were taken as described above and immunoblotted with an anti-heavy chain AP conjugated antibody (Sigma #A3188). […] There was no obvious benefit having used inhibitors. The antibody was stable in this pH 4.2 supernatant. […]

Structures are written as SMILES. Non-standard residues stand in square brackets, D forms with d. Residues, ends and D or L forms follow the SMILES beside them. *: point of attachment. Sta = CC(C)C[C@H](N)[C@@H](O)CC(=O)O; Isovaleryl = CC(C)CC(=O)*

For `CC(C)CC(=O)N[C@H](C(=O)N[C@H](C(=O)N[C@@H](CC(C)C)[C@@H](O)CC(=O)N[C@@H](C)C(=O)N[C@@H](CC(C)C)[C@@H](O)CC(=O)O)C(C)C)C(C)C` [pepstatin A] (Isovaleryl-VV[Sta]A[Sta]-OH), the “effect on hGH production” value in data set [1] is “negative effect on the growth hormone production”. Besides, the “effect on culture growth (followed by pH)” value in data set [2] was “small reduction in growth”. For the same compound, the “stabilisation of hGH, IFNα2b and IGF1 in supernatant” value in data set [3] is recorded as “remarkably stabilized”.
